US9517244B2, “Therapeutic combinations for use in neoplasia” (University of Florida Research Foundation, Inc., priority 2011, dated 2016)

What was measured:
[1] = system: CD133, Nanog, Oct4, Sox2 expression in GBM-L0 stem cells; assay: qRT-PCR of self-renewal genes in GBM-L0 stem cells; format: cell-based; settings: 2.5 μM NSC-30049 + 10 or 100 μM TMZ, 36 h, compared to either alone
Procedure: Cells were pretreated with 2.5 μM of NSC30049 or 10 or 100 μM TMZ alone or in combination with NSC-30049 for 36 h. Then, total RNA was isolated and processed for gRT-PCR. Data presented are the mean±SE of three different measurements. […] Treatment with NSC-30049 or TMZ reduced the expression of aldehyde dehydrogenase gene Aldh1a7 in GBM-LO stem cell line in vitro, but not treatment with NSC-30049 and TMZ. Cells were pretreated with 2.5 μM of NSC30049 or 10 or 100 μM of TMZ alone or in combination with NSC-30049 for 36 h. Then, total RNA was isolated and processed for qRT-PCR. Data presented are the mean±SE of three different measurements.
Without being bound to a particular theory, the effect of administration of NSC-30049 in combination with temozolomide (TMZ) on the expression of self-renewal marker genes of […] was analyzed. Self-renewal marker genes are highly expressed in colon cancer stem cells compared to human parental cancer cells. qRT-PCR data of CD133+, Oct4, Sox2 and Nanog gene expression levels of GBM-L0 stem cells was obtained (FIG. 14A). Cells were pretreated with 2.5 μM of NSC30049 or 10 or 100 μM of TMZ alone or in combination with NSC-30049 for 36 h. Then, total RNA was isolated and processed for qRT-PCR. Data presented are the mean±SE of three different measurements. […]

Pol-β = Pol-β (Homo sapiens, UniProt P06746); assay: Pol-β-directed strand-displacement synthesis, reconstituted in vitro assay; format: biochemical; settings: 0.5, 1, 2.5 and 5 μM
Procedure: Lanes 4-7 contained increasing concentrations of NSC-30049 (0.5, 1, 2.5, and 5 μM, respectively). The arrows indicate the positions of the 63-mer substrate and the products. […] Data are representative of three different experiments.

MiaPaCa2-Lu tumors = assay: orthotopic MiaPaCa2-Lu tumors in athymic mice, tumor luciferase expression; format: in vivo; settings: combination treatment of NSC-30049 and CDDP
Source text: FIG. 8A depicts in situ imaging of orthotopic MiaPaCa2-Lu tumors growing in female athymic (nu/nu) mice.

PANC1 = assay: MTT assay, pancreatic cancer cell line; format: cell-based, human; settings: Homo sapiens, PANC-1; PANC1 (dFdC-resistant); single agent; 72 h; read-out: IC50
APE1 = APE1 (Homo sapiens, UniProt P27695); assay: fluorescence anisotropy, APE1 binding to AP-site DNA
Source text: FIGS. 7A and 7B show the effect of NSC-30049 on the APE1 affinity for AP-lesion containing DNA. […] FIG. 7B is a table showing the apparent Kd values of the data. Values are the mean±SD of triplicate estimations.
The small molecule inhibitor (SMI), NSC-30049, was identified as an inhibitor of APE1 endonuclease activity by molecular docking.

[2] = system: CD133, Nanog, Oct4, Sox2 expression in colon cancer stem cells; assay: qRT-PCR of self-renewal marker genes in colon cancer stem cells; format: cell-based, human; settings: 1.25 μM NSC-30049 + 1.25 μM OPT, 72 h, compared to either alone
Procedure: Cells were treated with 1.25 μM of NSC-30049 and 1.25 μM of OPT either alone or in combination for 72 h. Data are mean±SD of triplicate experiments. FIG. 9B depicts the inhibition in expression of self-renewal marker genes of colon cancer stem cells, qRT-PCR data of CD133+, Oct4, Sox2 and Nanog gene expression levels of parental cancer cells and colon cancer stem cells was obtained. Cells were treated with 1.25 μM of NSC-30049 and 1.25 μM of OPT either alone or in combination for 72 h. Fold change in gene expression values is shown as mean±SD of three experiments and are normalized to GAPDH gene expression.
Without being bound to a particular theory, the effect of administration of NSC-30049 in combination with oxaliplatin (OPT) on the expression of self-renewal marker genes of colon cancer stem cells was analyzed. Self-renewal marker genes are highly expressed in colon cancer stem cells compared to human parental cancer cells. qRT-PCR data of CD133+, Oct4, Sox2 and Nanog gene expression levels of parental cancer cells and colon cancer stem cells was obtained (FIG. 9B). Cells were treated with 1.25 μM of NSC-30049 and 1.25 μM of OPT either alone or in combination for 72 h. The fold change in gene expression values is shown as mean±SD of three experiments and were normalized to GAPDH gene expression. […]

AsPC1 = assay: MTT assay, pancreatic cancer cell line; format: cell-based, human; settings: Homo sapiens; AsPC1 (dFdC-resistant); single agent; 72 h; read-out: IC50
A172 = assay: MTT assay, brain cancer cell line; format: cell-based; settings: Homo sapiens, A 172, 120 h, single agent, read-out: IC50 of NSC-30049
Procedure: (§1) The use of NSC-30049 as a chemopreventive agent for the treatment of brain cancer was also tested. NSC-30049 in combination with temozolomide was administered to brain cancer cell lines, including U118, U138, U87MG, A172, and T98 cell lines (Table 6). Cells were pretreated with the indicated concentrations of NSC-30049 followed by TMZ for 120 h. After treatment, cells were processed for the determination of viability by cell proliferation assay (MTT assay). The data from the graph was used for the determination of IC50, which is presented as the mean±SE of three different estimations. Increasing the concentration of NSC-30049 decreased the IC50 of temozolomide for all cell lines tested, regardless of whether they were MMR proficient or deficient.

T98 = assay: MTT assay, brain cancer cell line; format: cell-based; settings: Homo sapiens, T98, 120 h, single agent, read-out: IC50 of NSC-30049
Procedure: as §1

U118 = assay: MTT assay, brain cancer cell line; format: cell-based; settings: 120 h, single agent, read-out: IC50 of NSC-30049
Procedure: as §1

U87MG = assay: MTT assay, brain cancer cell line; format: cell-based; settings: Homo sapiens, U-87 MG, 120 h, single agent, read-out: IC50 of NSC-30049
Procedure: as §1

U138 = assay: MTT assay, brain cancer cell line; format: cell-based; settings: 120 h, single agent, read-out: IC50 of NSC-30049
Procedure: as §1

solubility in water = format: physicochemical

Chain of APE1 (P27695 whole entry): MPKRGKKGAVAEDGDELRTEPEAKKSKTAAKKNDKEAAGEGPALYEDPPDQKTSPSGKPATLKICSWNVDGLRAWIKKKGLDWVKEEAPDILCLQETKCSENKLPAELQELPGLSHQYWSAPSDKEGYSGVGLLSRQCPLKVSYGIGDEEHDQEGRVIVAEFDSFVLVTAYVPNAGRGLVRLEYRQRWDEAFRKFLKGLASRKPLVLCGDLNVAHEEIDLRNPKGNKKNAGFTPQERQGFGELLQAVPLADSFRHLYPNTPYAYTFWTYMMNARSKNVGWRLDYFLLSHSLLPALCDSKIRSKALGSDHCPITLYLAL

## ClCC=CC[N+]12CN3CN(CN(C3)C1)C2 [NSC-30049, 1-(4-Chloro-2-butenyl)-1λ˜5˜,3,5,7-tetraazatricyclo[3.3.1.1˜3,7˜]decane]
[1]
  expression of CD133, Nanog, Oct4, and Sox2: significantly inhibited the expression of CD133, Nanog, Oct4, and Sox2
Pol-β
  effect on Pol-β-directed strand-displacement synthesis: did not affect Pol-β-directed strand-displacement synthesis
MiaPaCa2-Lu tumors
  inhibition of tumor growth (tumor luciferase expression): synergistic effect on the inhibition of MiaPaCa2-Lu tumor growth
PANC1
  IC50: 5.12 ± 0.22 µM
APE1
  binding of APE1 with AP-site DNA: blocked the binding of APE1 with AP-site DNA in a dose-dependent manner
[2]
  expression of CD133, Nanog, Oct4, and Sox2: significantly inhibited the expression of CD133, Nanog, Oct4, and Sox2
AsPC1
  IC50: 1.88 ± 0.11 µM
A172
  IC50: 6.5 ± 0.3 µM
T98
  IC50: 10.1 ± 0.3 µM
U118
  IC50: 2.6 ± 0.1 µM
U87MG
  IC50: 5.6 ± 1 µM
U138
  IC50: 2.1 ± 0.1 µM
Solubility in water
  solubility in water: readily soluble in water
